Measurements as given in patent publication US8673949B2 (Bristol-Myers Squibb Company, priority 2008, dated 2014).
Where “and” joins values, the source holds several entries; their conditions need not be identical. Equal entries are not always repeated. Where two headings read alike, the source gives them in different places.

Assays:
Tg4510 mice [1] = test: Neuronal counts in CA1 and CA3 regions of hippocampus (stereology) in Tg4510 mice; type: in vivo, mouse; details: Tg4510 mice at 5.5 months
Experimental: (§1) Mice were euthanized by cervical dislocation at 5. 5 months followed by decapitation. Brains were immediately removed and divided down the midline into two hemispheres. The right hemisphere was placed into 20 mL of 4% paraformaldehyde (prepared fresh on the day of sacrifice) and stored overnight at 4° C. The following day, the brains were transferred to a tube containing 20 mL TBS (pH 7.4, 20 mM TRIS, 100 mM NaCl) and then stored at 4° C. until processing. Right hemispheres were embedded in paraffin, sectioned at 5 microns, and mounted on positively charged glass slides. The slides were dried overnight in a 60° C. oven and stored at room temperature until stained. The left hemispheres were frozen (within 2 minutes) on dry ice.
Nissl stained slides were scanned and digitized using the Aperio ScanScope (Aperio Technologies, Inc., Vista, Calif.). Images of the entire brain section were captured at high resolution and stored as files within Spectrum (Aperio software). To process images, a region of 4,000×4,000 pixels including the entire hippocampus was captured using the extract tool and saved as a JPEG file for importing into Metamorph (Molecular Devices, Sunnyvale, Calif.) for quantification of cell loss within the CA1 and CA3 regions of the hippocampus. A modified version of the single section dissector method (Moller et al. 1990) was utilized to quantify cell loss because of its suitability for thin, paraffin-embedded tissue sections. To obtain relative numbers of cells, every fifth section was collected as the paraffin-embedded brains were cut sagitally between the Bregma and approximately 0.75 mm laterally. Three regions were drawn and counted per section using Metamorph software. The same regions were used for every image and 5 sections were counted per animal, 5 slides apart. Statistics were performed using ANOVA followed by Dunnett's post-hoc test.
Previous studies had shown that Tg4510 mice lost about 60% of their neurons in the CA1 region of the hippocampus at 5.5 months (Santacruz et al. 2005). […]

phosphorylated Tau (AT8) = test: AT8 phosphoTau immunohistochemistry in Tg4510 mice; type: in vivo, mouse
Experimental: as §1
Paraffin-embedded thin sections (5 microns) were deparaffinized and rehydrated to water in 3 changes of xylene, two changes of 100% ethanol, and 1 change of 95% ethanol, followed by rinsing in water. Antigen retrieval was performed by steaming the slides in 10 mM sodium citrate buffer, pH 6.0 for 30 minutes in a Black and Decker Steamer (Model # HS900) and then cooled for 30 minutes. […] After washing in TBS, the signal is detected using a Vectastain ABC Elite Kit (Vector Labs Burlingame, Calif.) for 1 hour followed by detection using the diaminobenzadine reagent from Vector labs. […]

[2] = Plasma, brain and liver levels after oral gavage in C57BL/6 mice; type: in vivo, mouse
Excerpt: Below, we first report the experimental detail for preparation and isolation of Compound III, and then the biological, in vivo data is described.

[3] = Plasma, brain and liver levels after bolus IV administration in nude mice; details: bolus IV 5 mpk; for concentration at 6 h / concentration at 24 h: nude, mouse, in vivo, iv, 5 mg/kg
[4] = Plasma, brain and liver levels of epothilone D after bolus IV in triple transgenic mice; type: in vivo, mouse; details: bolus IV 5 mpk; for concentration at […]: .33 hr
Excerpt: (§2) To calculate an accurate brain half-life for a long half-life compound, measurements need to be taken for several half lives after a single dose.

Tg4510 mice [5] = test: Morris water maze (MWM) in Tg4510 mice; details: vs vehicle; for MWM acquisition: locating the hidden platform: tested at 4.5 months; for MWM probe trial % pathlength in target quadrant / MWM probe trial number of platform crossings: probe 18 h after 5 days of training
Experimental: A 10× stock solution was made in 100% ethanol, and diluted just before dosing. Mice were dosed in 3 cohorts and data were combined to give a final N of 12, 9, and 15 for the vehicle, 1 mpk, and 10 mpk groups, respectively. Mice were dosed in a chemical fume hood.
Tg4510 mice were used in this study. […] At 9 weeks (+/−15 days) of age, mice were acclimated to handling with a single mock injection of phosphate buffered saline, performed within a chemical fume hood. The mice were then housed in cages kept within the chemical fume hood for 48 hours. Following the 48-hour period, the mice were transferred to clean cages and brought to a behavioral suite for testing.
Mice were again tested in the MWM after the eighth dose (19 weeks of age+/−15 days) for six days. After behavioral testing, dosing resumed until the animals were 5.5 months of age at the time of harvest.
Mice were tested in Morris water maze (MWM) on two occasions, once prior to dosing, and once two months after dosing began. The second round of water maze testing was performed in another testing room. Mice were acclimated to the experimental room for 2-3 days prior to testing. The mice were placed in a water maze of 1.5 m diameter, with a 16 cm diameter platform placed 0.5-1.0 cm under the surface of the water. The water was made opaque with non-toxic white paint and the water temperature was regulated between 22-25° C.
The mice were given 4 trials per day of up to 90 seconds each with a 10 second rest period on the platform after each trial. […] The testing room rooms each had large external cues to allow the mice to orient as they learned the location of the platform. Mice were placed under a heat lamp to prevent hypothermia after each trial. The interval between trials ranged from 25 to 45 minutes. The mice were tracked using HVS Image Advanced Tracker VP200 software (Buckingham, UK) and the total distance traveled until reaching of the platform was determined.
Statistical analysis for acquisition path length from the five trials involved a repeated measures analysis of variance. […] If the analysis indicated a significant effect of treatment, or a treatment-by-trial interaction, differences between the 1 mpk and 10 mpk groups were compared to the vehicle group using Dunnett's test. The probe pathlengths in each quadrant, and number of platform crossings in each quadrant, were analyzed using Dunnett's test. In all cases, 1 mpk and 10 mpk groups were compared to the vehicle group. All calculations were done in SAS, version 9.1, under the Windows XP Professional operating system.

[6] = Brain half-life of epothilone D in mice; type: in vivo, mouse; details: for half-life: mouse, brain
Excerpt: as §2

[7] = mouse, brain, 10 mg/kg, C57BL/6 mice, oral gavage 10 mpk, read-out: Brain conc
[8] = mouse, brain, 35 mg/kg, C57BL/6 mice, oral gavage 35 mpk, read-out: Brain conc
[9] = mouse, plasma, 10 mg/kg, C57BL/6 mice, oral gavage 10 mpk, read-out: Plasma conc
[10] = mouse, plasma, 35 mg/kg, C57BL/6 mice, oral gavage 35 mpk, read-out: Plasma conc
[11] = triple transgenic (Oddo et al. 2003), mouse, brain, 5 mg/kg, read-out: Brain conc
[12] = triple transgenic (Oddo et al. 2003), mouse, plasma, 5 mg/kg, read-out: Plasma conc

C/C1=C/C[C@@H](/C(C)=C/c2csc(C)n2)OC(=O)C[C@H](O)C(C)(C)C(=O)[C@H](C)[C@@H](O)[C@@H](C)CCC1 [Epothilone D, epothilone D]
CA3 total cell count (Tg4510 mice [1]; 1 mpk IP weekly, vs vehicle): significant differences between the 1 mpk and non-transgenic mice compared to vehicle treated mice
CA1 neuronal count (Tg4510 mice [1]; 1 mpk IP weekly, vs vehicle, p<0.01): substantially more CA1 neurons than vehicle-treated animals
CA1 neuronal count (Tg4510 mice [1]; 10 mpk IP weekly): intermediate between the vehicle-treated mice and the mice treated with 1 mpk
AT8 phosphoTau staining, hippocampus CA1 (phosphorylated Tau (AT8); 1 mpk IP weekly, vs vehicle): much less phosphoTau staining
AT8 phosphoTau staining, hippocampus CA1 (phosphorylated Tau (AT8); 10 mpk IP weekly): intermediate levels of phosphoTau staining
Plasma conc ([2]; C57BL/6 mice, oral gavage 10 mpk, 48 hr): (0.1 nM)
Plasma conc ([2]; C57BL/6 mice, oral gavage 10 mpk, 96 hr): (0.1 nM)
Plasma conc ([2]; C57BL/6 mice, oral gavage 35 mpk, 24 hr): (0.5 nM)
concentration at 1 h [2, 7]: 10.6 nM
concentration at 3 h [2, 7]: 7 nM
concentration at 4 h [2, 7]: 9.9 nM
concentration at 8 h [2, 7]: 6.4 nM
concentration at 13 h [2, 7]: 6.3 nM
concentration at 24 h ([2]; mouse, brain, 10 mg/kg, C57BL/6 mice, oral gavage 10 mpk, 24 hr, read-out: Brain conc): 9.1 nM
concentration at 48 h ([2]; mouse, brain, 10 mg/kg, C57BL/6 mice, oral gavage 10 mpk, 48 hr, read-out: Brain conc): 5.4 nM
concentration at 96 h ([2]; mouse, brain, 10 mg/kg, C57BL/6 mice, oral gavage 10 mpk, 96 hr, read-out: Brain conc): 3 nM
concentration at 1 hr [2, 8]: 61.3 nM
concentration at 5 hr [2, 8]: 76.9 nM
concentration at 24 hr ([2]; mouse, brain, 35 mg/kg, C57BL/6 mice, oral gavage 35 mpk, 24 hr, read-out: Brain conc): 118 nM
concentration at 1 h [2, 9]: 15.1 nM
concentration at 3 h [2, 9]: 3.9 nM
concentration at 4 h [2, 9]: 2.5 nM
concentration at 8 h [2, 9]: 1.4 nM
concentration at 13 h [2, 9]: 0.1 nM
concentration at 24 h ([2]; mouse, plasma, 10 mg/kg, C57BL/6 mice, oral gavage 10 mpk, 24 hr, read-out: Plasma conc): 0.2 nM
concentration at 1 hr [2, 10]: 52.7 nM
concentration at 5 hr [2, 10]: 3.6 nM
time brain levels were maintained ([2]; oral dosing 10 and 35 mpk (also IV, Table 2)): more than 24 h
brain levels versus liver levels ([3]; 6 and 24 h after dosing): high brain levels that exceeded liver levels
concentration at 6 h ([3]; Brain conc): 2790 nM
concentration at 24 h ([3]; Brain conc): 2050 nM
concentration at 6 h ([3]; Plasma conc): 6 nM
concentration at 24 h ([3]; Plasma conc): 1 nM
retention in brain tissue after a single dose [4]: at least 168 h
Plasma conc ([4]; 96 hr): <LLQ (0.6 nM)
Plasma conc ([4]; 168 hr): <LLQ (0.6 nM)
concentration at 24 h ([4]; mouse, liver, 5 mg/kg, below LLQ, read-out: liver levels): < 49 nM
concentration at 0.05 h [4, 11]: 1.13 µM
concentration at 0.17 h [4, 11]: 595 nM
concentration at 1 h [4, 11]: 422 nM
concentration at 3 h [4, 11]: 468 nM
concentration at 6 h [4, 11]: 141 nM
concentration at 16 h [4, 11]: 210 nM
concentration at 24 h [4, 11]: 82.7 nM
concentration at 96 h ([4]; triple transgenic (Oddo et al. 2003), mouse, brain, 5 mg/kg, 96 hr, read-out: Brain conc): 25.2 nM
concentration at 168 h ([4]; triple transgenic (Oddo et al. 2003), mouse, brain, 5 mg/kg, 168 hr, read-out: Brain conc): 16.3 nM
concentration at […] [4, 11]: 529 nM
concentration at 0.05 h [4, 12]: 25.1 µM
concentration at 0.17 h [4, 12]: 2000 nM
concentration at 1 h [4, 12]: 325 nM
concentration at 3 h [4, 12]: 70 nM
concentration at 6 h [4, 12]: 43 nM
concentration at 16 h [4, 12]: 0.8 nM
concentration at 24 h [4, 12]: 0.9 nM
concentration at […] [4, 12]: 549 nM
MWM acquisition: locating the hidden platform (Tg4510 mice [5]; 1 mpk IP once weekly, p<0.01): able to locate the hidden platform in the MWM more quickly
MWM probe trial % pathlength in target quadrant (Tg4510 mice [5]; 1 mpk IP weekly for 2 months): statistically significant differences in both measures as compared with the vehicle group
MWM probe trial number of platform crossings (Tg4510 mice [5]; 1 mpk IP weekly for 2 months): statistically significant differences in both measures as compared with the vehicle group
MWM acquisition: locating the hidden platform (Tg4510 mice [5]; 10 mpk IP once weekly): trend toward improvement
MWM probe trial % pathlength in target quadrant (Tg4510 mice [5]; 10 mpk IP weekly for 2 months): significantly greater performance compared to the vehicle group
MWM probe trial number of platform crossings (Tg4510 mice [5]; 10 mpk IP weekly for 2 months): not when using the number of platform crossings measure
Half life (brain) ([6]; Mouse, IP, 10 mpk, 10 mg/kg): 37 h and 45 h and 46 h
half-life ([6]; intravenous, oral, intraperitoneal, mice, multiple routes of administration and dosages, read-out: brain half life, average (converted)): 2760 min
half-life ([6]; ip, 1 mg/kg, Mouse, IP, 1 mpk, read-out: Half life (brain) (converted)): 2640 min
half-life ([6]; ip, 10 mg/kg, Mouse, IP, 10 mpk, read-out: Half life (brain) (converted)): 2460 min
half-life ([6]; iv, 5 mg/kg, Mouse, IV, 5 mpk, read-out: Half life (brain) (converted)): 3660 min
half-life ([6]; po, 10 mg/kg, Mouse, Oral, 10 mpk, read-out: Half life (brain) (converted)): 2760 min
